According to CN106581687A, “以乳清蛋白为基质的桃柁酚抗菌纳米水凝胶及其制备方法” (Jilin University, priority 2016, dated 2017):
≈ marks a conversion by molar mass, not a printed value.

Test system: Staphylococcus aureus (金黄色葡萄球菌), S.aureus strains ATCC 29213
Assay: 最小抑菌浓度MIC (minimum inhibitory concentration of totarol)
Assay type: cell-based
Details: value used for loading in the Example concerned

For CC(C)c1c(O)ccc2c1CC[C@H]1C(C)(C)CCC[C@]21C [桃柁酚, 桃柁酚(Totarol)], the MIC (Staphylococcus aureus, ATCC29213, totarol against Staphylococcus aureus) was 2 µg/mL (≈ 6.98 µM) and the “minimum inhibitory concentration (MIC value)” value (totarol against Staphylococcus aureus) was 4 µg/mL (≈ 14 µM).
